“Also recorded” adds a separate entry of the source. Like-named read-outs stand apart in the source and are kept apart here.
Columns and labels:
p53-R282W = biological target: T1, p53-R282W (Homo sapiens, UniProt P04637, R282W); type: cell-based; settings: p53-R282W on PUMA promoter, agents 24 hr (FIG. 37 and FIG. 41)
T1 construct: pcDNA3.1 expressing human full length p53 was gift from Prof; Xin Lu; expressed in transfected cells; host or cells: H1299 (p53-null)

NCI60 cell lines = type: cell-based, human; settings: Struc. / WT / Null / Others, G150 retrieved by CellMiner
wtp53 = assay: Real time qPCR of p53 targets, HCT116 cells; type: cell-based, human; settings: HCT116 expressing wtp53
Protocol: Total RNA was isolated from cells using Total RNA Purification Kit (B518651, Sangon Biotech). 1 μg total RNA was reverse-transcribed using the GoScript®™ Reverse Transciptase System (A5001, Promega) following manufacturer's protocol. PCR was performed in triplicate using SYBR green mix (Applied Biosystems), and a ViiA™ 7 Real-Time PCR System (Applied Biosystems) under the following conditions: 10 min at 95° C. followed by 40 cycles of 95° C. for 15 s and 60° C. for 1 min. Specificity of the PCR product was checked for each primer set and samples from the melting curve analysis. Expression levels of targeted genes were normalized relative to levels of β-actin adopting comparative Ct method.

p53-R172H = biological target: T2, p53-R172H (Mus musculus, UniProt P02340, R172H); type: cell-based
T2 construct: endogenous in cells; host or cells: mouse embryonic fibroblasts, Trp53-R172H/R172H
T2 sequence (P02340 whole entry R172H): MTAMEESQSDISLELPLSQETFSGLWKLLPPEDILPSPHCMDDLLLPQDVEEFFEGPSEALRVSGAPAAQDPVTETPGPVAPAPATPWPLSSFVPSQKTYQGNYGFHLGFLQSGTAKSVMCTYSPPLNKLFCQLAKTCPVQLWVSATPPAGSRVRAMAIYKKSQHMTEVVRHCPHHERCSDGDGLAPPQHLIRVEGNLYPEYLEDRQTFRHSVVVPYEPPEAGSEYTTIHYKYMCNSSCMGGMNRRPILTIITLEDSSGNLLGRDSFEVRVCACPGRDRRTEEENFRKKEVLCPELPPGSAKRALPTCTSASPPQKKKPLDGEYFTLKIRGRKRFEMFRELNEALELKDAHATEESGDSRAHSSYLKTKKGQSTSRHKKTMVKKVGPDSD

COc1ccc(/C=C/c2nc(NCCCN(C)C)c3ccccc3n2)cc1 [CP31398]
enhancement of p53 transcriptional activity in luciferase assay (p53-R282W): 1.5 times

Cc1c2ccncc2c(C)c2c1[nH]c1ccccc12 [Ellipticine]
enhancement of p53 transcriptional activity in luciferase assay (p53-R282W): 3.3 times

C/C(=N\NC(=S)N1CCC1)c1ccccn1 [NSC319726]
enhancement of p53 transcriptional activity in luciferase assay (p53-R282W): 1.5 times
selectivity among NCI60 cell lines by p53 status (G150), in words (NCI60 cell lines): none of the reported compounds tested, including PRIMA-1 and NSC319726 survived the 4C screening; also recorded: No significant association

COc1ccc(C2=N[C@@H](c3ccc(Cl)cc3)[C@@H](c3ccc(Cl)cc3)N2C(=O)N2CCNC(=O)C2)c(OC(C)C)c1 [Nutlin3]
mRNA levels of p53 targets, in words (wtp53): significantly enhanced PUMA, PIG3, CDKN1A and MDM2 mRNA levels

O=C1C2CCN(CC2)C1(CO)CO [PRIMA-1]
enhancement of p53 transcriptional activity in luciferase assay (p53-R282W): negligible
selectivity among NCI60 cell lines by p53 status (G150), in words (NCI60 cell lines): none of the reported compounds tested, including PRIMA-1 and NSC319726 survived the 4C screening
selectivity among NCI60 cell lines by p53 status (G150), in words (NCI60 cell lines; listed as NSC281668): No significant association

CCn1c2ccccc2c2cc(CNC)ccc21 [PhiKan083]
enhancement of p53 transcriptional activity in luciferase assay (p53-R282W): negligible

OCc1ccc(-c2ccc(-c3ccc(CO)s3)o2)s1 [RITA]
enhancement of p53 transcriptional activity in luciferase assay (p53-R282W): negligible

C=Cc1nc2ccccc2c(=O)[nH]1 [STIMA-1]
enhancement of p53 transcriptional activity in luciferase assay (p53-R282W): negligible

MIRA-1
enhancement of p53 transcriptional activity in luciferase assay (p53-R282W): negligible

potassium arsenite [NSC3060]
PAb246 epitope (folded mouse p53-R172H), in words (p53-R172H): measurable increase of PAb1620 epitopes and PAb246 (for mouse p53-R172H) epitopes
